target: T1, RAD52 (Homo sapiens, UniProt P43351); test: D-loop formation assay; format: biochemical; details: compound at 10 μM; 32P-labeled ssDNA (oligo 90) and supercoiled pUC19 DNA, 37° C.
T1 construct: made in house
T1 sequence (P43351 1-418): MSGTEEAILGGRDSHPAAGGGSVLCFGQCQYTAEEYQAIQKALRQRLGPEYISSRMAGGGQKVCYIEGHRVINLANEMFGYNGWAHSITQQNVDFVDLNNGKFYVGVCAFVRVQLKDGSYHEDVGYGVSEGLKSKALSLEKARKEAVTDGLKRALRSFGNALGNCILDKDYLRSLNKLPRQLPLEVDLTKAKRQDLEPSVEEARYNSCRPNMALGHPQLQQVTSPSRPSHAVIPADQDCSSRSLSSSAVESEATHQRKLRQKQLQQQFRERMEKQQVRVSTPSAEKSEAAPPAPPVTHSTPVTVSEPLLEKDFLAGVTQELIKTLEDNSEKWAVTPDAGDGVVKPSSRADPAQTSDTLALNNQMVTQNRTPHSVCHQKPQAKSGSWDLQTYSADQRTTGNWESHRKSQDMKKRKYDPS

Row | Structure (SMILES) | D-Loop (% @10 μM) [%]
1 | CCN(CC)CCNC(=O)Nc1ccc2nc(N3CCN(CC)CC3)cc(C)c2c1 [compound 0038, 1-(2-(diethylamino)ethyl)-3-(2-(4-ethylpiperazin-1-yl)-4-methylquinolin-6-yl)urea] | 77.7
2 | CCN(CC)CCNC(=S)Nc1ccc2nc(N3CCCC3)cc(C)c2c1 [compound 0088] | 8.25
3 | CCN1CCN(c2cc(C)c3cc(NC(=S)NCCCN4CCCCCC4)ccc3n2)CC1 [compound 0028] | 46.57
4 | CCN1CCN(c2cc(C)c3cc(NC(=S)NCCN(C(C)C)C(C)C)ccc3n2)CC1 [compound 0035] | 64.68
5 | CCN1CCN(c2cc(C)c3cc(NC(=S)NCCN4CCCCCC4)ccc3n2)CC1 [compound 0027] | 23.26
6 | Cc1cc(N2CCCC2)nc2ccc(NC(=S)NCCCCN)cc12 [compound 0095] | 4.51
7 | Cc1cc(N2CCN(CC3CCNCC3)CC2)nc2ccc(NC(=O)NCCCN3CCCCCC3)cc12 [compound 0113, 1-(3-(azepan-1-yl)propyl)-3-(4-methyl-2-(4-(piperidin-4-ylmethyl)piperazin-1-yl)quinolin-6-yl)urea] | 0.34
8 | CCN(CC)CCNC(=S)Nc1ccc2nc(N3CCN(Cc4nccn4C)CC3)cc(C)c2c1 [compound 0084] | 68.84
9 | CCN1CCN(c2cc(C)c3cc(NC(=S)NCCCCN)ccc3n2)CC1 [compound 0047] | 7.92
10 | CCN(CC)CCNC(=S)Nc1ccc2nc(N3CCN(CCC4CCC(N)CC4)CC3)cc(C)c2c1 (centres unmarked) [compound 0087] | 0
11 | Cc1cc(N2CCCC2)nc2ccc(NC(=S)NCCN)cc12 [compound 0093] | 4.86
12 | Cc1cc(N2CCCC2)nc2ccc(NC(=S)NCCCN)cc12 [compound 0094] | 4.26
13 | CCN1CCN(c2cc(C)c3cc(NC(=S)NCCN)ccc3n2)CC1 [compound 0033] | 12.77
14 | CCN(CC)CCNC(=O)C(=O)Nc1ccc2nc(N3CCN(CC)CC3)cc(C)c2c1 [compound 0114, N^1-(2-(diethylamino)ethyl)-N^2-(2-(4-ethylpiperazin-1-yl)-4-methylquinolin-6-yl)oxalamide] | 16
15 | CCN1CCN(c2cc(C)c3cc(NC(=S)NCCN4CCCCCCC4)ccc3n2)CC1 [compound 0041] | 62.62
16 | CCN1CCN(c2cc(C)c3cc(NC(=S)NCCCN4CCCCC4)ccc3n2)CC1 [compound 0026] | 11.42
17 | Cc1cc(N2CCN(CC3CCCNC3)CC2)nc2ccc(NC(=S)NCCCN3CCCC3)cc12 (centres unmarked) [compound 0064] | 1.5
18 | CCN1CCN(c2cc(C)c3cc(NC(=O)NCCCN4CCCCCC4)ccc3n2)CC1 [compound 0039, 1-(3-(azepan-1-yl)propyl)-3-(2-(4-ethylpiperazin-1-yl)-4-methylquinolin-6-yl)urea] | 93.38
19 | CCN(CC)CCCCNC(=S)Nc1ccc2nc(N3CCN(CC)CC3)cc(C)c2c1 [compound 0036] | 64.62
20 | CCN(CC)CCNC(=S)Nc1ccc2nc(N3CCN(CC(N)CO)CC3)cc(C)c2c1 (centres unmarked) [compound 0086] | 4.44

Row | Structure (SMILES) | D-Loop (% @10 μM) [%]
21 | CCN(CC)CCNC(=S)Nc1ccc2nc(N3CCN(CCN)CC3)cc(C)c2c1 [compound 0080] | 35.63
22 | Cc1cc(N2CCCC2)nc2ccc(NC(=S)NCCN3CCCCCC3)cc12 [compound 0089] | 3.48
23 | CCN1CCN(c2cc(C)c3cc(NC(=S)NCC(C)(CN)CN)ccc3n2)CC1 [compound 0044] | 50.05
24 | Cc1cc(N2CCCCC2)nc2ccc(NC(=S)NCCN3CCCCCC3)cc12 [compound 0099] | 67.50
25 | CCC(C)[C@H](N)C(=O)N1CCN(c2cc(C)c3cc(NC(=S)NCCN(CC)CC)ccc3n2)CC1 (some centres unmarked) [compound 0053] | 54.13
26 | CCN1CCN(c2cc(C)c3cc(NC(=S)NCCN4CCCCC4)ccc3n2)CC1 [compound 0025] | 36.08
27 | Cc1cc(N2CCCC2)nc2ccc(NC(=S)NCCN3CCCCC3)cc12 [compound 0090] | 2.93
28 | CCN1CCN(c2cc(C)c3cc(NC(=S)NCCN4CCC(CN5CCCC5)C4)ccc3n2)CC1 (centres unmarked) [compound 0073] | 16.42
29 | S=C(NCCCN1CCCCCC1)Nc1ccc2nc(N3CCNCC3)ccc2c1 [compound 0022] | 37.7
30 | CCN1CCN(c2cc(C)c3cc(NC(=S)NCCCNC)ccc3n2)CC1 [compound 0057] | 52.1
31 | CCN(CC)CCNC(=S)Nc1ccc2nc(N3CCN(CC4CCCNC4)CC3)cc(C)c2c1 (centres unmarked) [compound 0051] | 10.13
32 | CCN1CCN(c2cc(C)c3cc(NC(=S)NCCCN4CCC4)ccc3n2)CC1 [compound 0042] | 53.70
33 | Cc1cc(N2CCN(CC3CCCNC3)CC2)nc2ccc(NC(=S)NCCCN3CCCCCC3)cc12 (centres unmarked) [compound 0062] | 1.89
34 | CCN(CC)CCNC(=S)Nc1ccc2nc(N3CCN(CC4CCCCC4)CC3)cc(C)c2c1 [compound 0050] | 62.82
35 | Cc1cc(N2CCN(CC3CCCNC3)CC2)nc2ccc(NC(=S)NCCN3CCCCCC3)cc12 (centres unmarked) [compound 0059] | 1.3
36 | CCN(CC)CCNC(=S)Nc1ccc2nc(N3CCNCC3)cc(C)c2c1 [compound 0048] | 15.65
37 | CCN1CCN(c2cc(C)c3cc(NC(=S)NCCCCCN)ccc3n2)CC1 [compound 0056] | 0.31
38 | CCN1CCN(c2cc(C)c3cc(NC(=S)NCCN4CCNCC4)ccc3n2)CC1 [compound 0045] | 55.68
39 | Cc1cc(N2CCN(CC3CCNCC3)CC2)nc2ccc(NC(=S)NCCN3CCCCCC3)cc12 [compound 0060] | 0.66
40 | CCN1CCN(c2cc(C)c3cc(NC(=S)NCCC4CCCN4)ccc3n2)CC1 (centres unmarked) [compound 0069] | 20.7

Row | Structure (SMILES) | D-Loop (% @10 μM) [%]
41 | CCN1CCN(c2cc(C)c3cc(NC(=S)NCCN4CCN(C)CC4)ccc3n2)CC1 [compound 0046] | 18.73
42 | Cc1cc(N2CCCC2)nc2ccc(NC(=S)NCCN3CCNCC3)cc12 [compound 0096] | 3.99
43 | Cc1cc(N2CCN(CC3CCNCC3)CC2)nc2ccc(NC(=S)NCCCN3CCCC3)cc12 [compound 0065] | 1.04
44 | Cc1cc(N2CCN(CC3CCNCC3)CC2)nc2ccc(NC(=S)NCCCN3CCCCCC3)cc12 [compound 0063] | 1.58
45 | CCN1CCN(c2cc(C)c3cc(NC(=S)NCCCN4CCCC4)ccc3n2)CC1 [compound 0068] | 30.62
46 | Cc1cc(N2CCCC2)nc2ccc(NC(=S)NCCCN3CCCC3)cc12 [compound 0092] | 5.98
47 | S=C(NCCN1CCCCCC1)Nc1ccc2nc(N3CCNCC3)ccc2c1 [compound 0021] | 40.29
48 | CCN(CC)CCNC(=S)Nc1ccc2nc(N3CCN(C(=O)C4CNCCN4)CC3)cc(C)c2c1 (centres unmarked) [compound 0055] | 27.42
49 | CCN1CCN(c2cc(C)c3cc(NC(=S)NCCN4CCCC4)ccc3n2)CC1 [compound 0029] | 46.67
50 | CCN1CCN(c2cc(C)c3cc(NC(=S)N(C)CCCN)ccc3n2)CC1 [compound 0058] | 25.89
51 | Cc1cc(N2CCCC2)nc2ccc(NC(=S)NCCN3CCN(C)CC3)cc12 [compound 0097] | 4.72
52 | CCN1CCN(c2cc(C)c3cc(NC(=S)NCCCN)ccc3n2)CC1 [compound 0077] | 21.2
53 | CCN1CCN(c2cc(C)c3cc(NC(=S)NCCCCN(C)C)ccc3n2)CC1 [compound 0067] | 35.65
54 | Cc1cc(N2CCCC2)nc2ccc(NC(=S)NCCCN3CCCCC3)cc12 [compound 0091] | 3.47
55 | CCN(CC)CCNC(=S)Nc1ccc2nc(N3CCCCC3)cc(C)c2c1 [compound 0098] | 70.99
56 | CCN(CC)CCNC(=S)Nc1ccc2nc(N3CCN(C(=O)C4CCCN4)CC3)cc(C)c2c1 (centres unmarked) [compound 0054] | 53.78
57 | CCN(CC)CCNC(=S)Nc1ccc2nc(N3CCN(CC4CC4)CC3)cc(C)c2c1 [compound 0049] | 44.4
58 | CCN(CC)CCNC(=S)Nc1ccc2nc(N3CCN(CC4CCNCC4)CC3)cc(C)c2c1 [compound 0052] | 4.07
59 | CCN1CCN(c2cc(C)c3cc(NC(=S)NCCCN4CCNCC4)ccc3n2)CC1 [compound 0079] | 25.15
